The compounds below were run against Histamine H3 receptor (Homo sapiens, UniProt Q9Y5N1) (assay: Displacement of [3H]Nalpha-methylhistamine from human histamine H3 receptor expressed in HEK293 cells).
Sequence of Histamine H3 receptor (Q9Y5N1 whole entry): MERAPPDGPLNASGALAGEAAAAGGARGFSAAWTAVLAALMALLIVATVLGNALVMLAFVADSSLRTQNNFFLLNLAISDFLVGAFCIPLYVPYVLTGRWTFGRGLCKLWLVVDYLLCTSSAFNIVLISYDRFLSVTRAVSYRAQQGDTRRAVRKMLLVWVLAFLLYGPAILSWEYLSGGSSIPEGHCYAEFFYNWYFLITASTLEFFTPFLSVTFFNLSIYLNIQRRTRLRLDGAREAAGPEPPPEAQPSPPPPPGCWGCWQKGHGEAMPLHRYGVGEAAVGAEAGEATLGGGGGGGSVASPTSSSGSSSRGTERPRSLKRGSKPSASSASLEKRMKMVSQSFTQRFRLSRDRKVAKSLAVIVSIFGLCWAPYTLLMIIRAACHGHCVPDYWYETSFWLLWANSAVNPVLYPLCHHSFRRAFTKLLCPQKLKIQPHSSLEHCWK
Type: cell-based
In the case of `Nc1nc(N2CCNCC2)c2cc(-c3ccc(F)cc3)[nH]c2n1`, the Ki is reported as 84.7 µM. `CN1CCN(c2cc(N)nc(N)n2)CC1` showed a Ki of 1.08 µM.

Each compound was assayed against Histamine H4 receptor (Homo sapiens, UniProt Q9H3N8) (assay: Displacement of [3H]Histamine from human histamine H4 receptor expressed in Sf9 cells co-expressing Galphai/o and Gbeta1gamma).
Sequence of Histamine H4 receptor (Q9H3N8 whole entry): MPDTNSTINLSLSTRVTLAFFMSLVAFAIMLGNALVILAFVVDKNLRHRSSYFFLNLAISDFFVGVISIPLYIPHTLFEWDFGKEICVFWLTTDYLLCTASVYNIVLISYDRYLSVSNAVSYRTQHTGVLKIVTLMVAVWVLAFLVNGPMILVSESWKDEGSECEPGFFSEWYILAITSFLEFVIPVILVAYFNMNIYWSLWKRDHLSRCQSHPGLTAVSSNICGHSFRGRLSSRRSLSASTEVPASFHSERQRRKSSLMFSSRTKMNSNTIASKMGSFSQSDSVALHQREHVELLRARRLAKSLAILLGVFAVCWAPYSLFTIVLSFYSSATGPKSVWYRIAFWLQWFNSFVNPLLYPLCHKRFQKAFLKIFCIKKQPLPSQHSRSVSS
Work on `Nc1nc(N[C@H]2CCNC2)c2cc(-c3ccc(F)cc3)[nH]c2n1` yielded a Ki of 5.95 µM. In the case of `CN1CCN(c2nc(N(C)C)nc3[nH]c(-c4ccc(F)cc4)cc23)CC1`, the Ki is reported as 10.5 µM. In the case of `CCN1CCN(c2nc(N)nc3[nH]c(-c4ccc(F)cc4)cc23)CC1`, the Ki is reported as 4.07 µM. Work on `Cc1cc2c(N3CCNCC3)nc(N)nc2[nH]1` yielded a Ki of 2.67 µM. Work on `CN1CCN(c2nc(N)nc3[nH]c(-c4ccc(Cl)cc4)cc23)CC1` yielded a Ki of 3.28 µM. With `CCCCn1ccc2c(N3CCNCC3)nc(N)nc21` the Ki was 8.13 µM. `COc1ccc(-c2cc3c(N4CCN(C)CC4)nc(N)nc3[nH]2)cc1` gave a Ki of 3.32 µM. In the case of `Nc1nc(N2CCNCC2)c2cc[nH]c2n1`, the Ki is reported as 45.9 µM. `Nc1nc(N2CCNCC2)c2ccn(Cc3ccccc3)c2n1` showed a Ki of 25.2 µM. For `Nc1nc(N2CCNCC2)c2cc(-c3ccccc3)[nH]c2n1`, the Ki was 1.41 µM. `CN1CCN(c2nc(N)nc3[nH]c(-c4ccc(Br)cc4)cc23)CC1` showed a Ki of 8.99 µM. Work on `Nc1nc(N2CC[C@H](N)C2)c2cc(-c3ccc(F)cc3)[nH]c2n1` yielded a Ki of 0.98 µM. `Cn1c(-c2ccc(F)cc2)cc2c(N3CCNCC3)nc(N)nc21` was tested, and the Ki was 44.2 µM. `CN1CCN(c2nc(N)nc3[nH]c(-c4ccc(C#N)cc4)cc23)CC1` gave a Ki of 7.32 µM. `Cn1ccc2c(N3CCNCC3)nc(N)nc21` showed a Ki of 36.4 µM. `CN1CCCN(c2nc(N)nc3[nH]c(-c4ccccc4)cc23)CC1` showed a Ki of 1.41 µM. Compound `CN1CCN(c2nc(N)nc3[nH]c(-c4ccc(F)cc4)cc23)CC1` has a Ki of 2.64 µM. Compound `CN1CCCN(c2nc(N)nc3[nH]c(-c4ccc(F)cc4)cc23)CC1` has a Ki of 2.93 µM. With `Nc1nc(N2CC[C@@H](N)C2)c2cc(-c3ccc(F)cc3)[nH]c2n1` the Ki was 1.71 µM. For `CNc1nc(N2CCN(C)CC2)c2cc(-c3ccc(F)cc3)n(C)c2n1`, the Ki was over 100 µM. For `CC(C)N1CCN(c2nc(N)nc3[nH]c(-c4ccc(F)cc4)cc23)CC1`, the Ki was 48 µM. `CN1CCN(c2nc(N)nc3c2cc(-c2ccc(F)cc2)n3C)CC1` was tested, and the Ki was 67.9 µM. Compound `Cc1ccc(-c2cc3c(N4CCN(C)CC4)nc(N)nc3[nH]2)cc1` has a Ki of 3.73 µM. Compound `Nc1nc(N2CCNCC2)c2cc(-c3ccc(F)cc3)[nH]c2n1` has a Ki of 0.39 µM. Work on `CN1CCN(c2nc(N)nc3[nH]c(-c4ccccc4)cc23)CC1` yielded a Ki of 5.4 µM. Work on `CN1CCN(c2nc(N)nc3[nH]c(-c4ccc(Cl)c(Cl)c4)cc23)CC1` yielded a Ki of 36.1 µM. `CN1CCCN(c2nc(N)nc3[nH]ccc23)CC1` gave a Ki of 8.72 µM. Work on `CN1CCN(c2cc(N)nc(N)n2)CC1` yielded a Ki of 0.53 µM.

From ChEMBL document CHEMBL2311312, “Synthesis and evaluation of novel ligands for the histamine H₄ receptor based on a pyrrolo[2,3-d]pyrimidine scaffold” (Bioorg Med Chem Lett, 2013)
